Patent US20240393292A1, “ALLERGY ANTIGEN AND EPITOPE THEREOF” (HOYU CO., LTD., priority 2019, published 2024)

Tested on: IgE antibodies from patients
Test: Wheat epitope mapping (2): overlapping 10-amino-acid peptide fragments shifted by one amino acid;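 as to Rank of partial sequence as epitope binding to IgE antibody: key = sequence deemed particularly important within the common 15-residue sequence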;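 as to epitope sequence binding to IgE antibody, rank (Key/Preferably/More preferably): key of grades: preferably = shorter partial sequence still acting as epitope; more preferably = sequence improving IgE binding; key = particularly important sequence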
Assay type: binding, human
Conditions: for Epitope sequence binding to IgE antibody, rank of the sequence (Key/Preferably/More preferably/Further preferably): serum of patient P50 (child, general immediate type allergy to wheat)
Method in brief: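 Residual binding was banded as <30% none, 30–<50% poor, 50–<70% somewhat poor and ≥70% retained, relative to the parent overlapping sequence set to 100%. Values were chemiluminescent IgE signals from patient sera after subtracting secondary-antibody-only controls. The peptides were spot-synthesised 10-mers shifted by one amino acid.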

[1] = serum of patient P52 (child, general immediate type allergy to wheat), sequence without X
[2] = serum of patient P5 (WDEIA), sequence without X
[3] = serum of patient P26 (WDEIA), sequence without X
[4] = serum of patient G2 (adult, general immediate type allergy to wheat), sequence without X
[5] = serum of patient P21 (WDEIA), sequence without X
[6] = serum of patient P14 (WDEIA), sequence without X
[7] = serum of patient P35 (WDEIA), sequence without X
[8] = serum of patient P17 (WDEIA), sequence without X
[9] = serum of patient G7 (adult, general immediate type allergy to wheat), sequence without X

2470 (LKAWSGK; REGION 1..7: note = epitope) [compound 2470]
Epitope sequence binding to IgE antibody, rank of the sequence (Key/Preferably/More preferably) [1]: Preferably

1303 (INVEN; REGION 1..5: note = epitope) [compound 1303]
Epitope sequence binding to IgE antibody, rank of the sequence (serum of patient P3 (WDEIA), sequence without X): Preferably

2254 (NYRV; REGION 1..4: note = epitope) [compound 2254]
Epitope sequence binding to IgE antibody, rank of the sequence (Key/Preferably/More preferably) [1]: Key

2267 (KRVIERFEK; REGION 1..9: note = epitope) [compound 2267]
Epitope sequence binding to IgE antibody, rank of the sequence (Key/Preferably/More preferably) [2]: Preferably

2296 (GIDK; REGION 1..4: note = epitope) [compound 2296]
Epitope sequence binding to IgE antibody, rank of the sequence (Key/Preferably/More preferably/Further preferably) (sequence without X): Key

1626 (YNPD; REGION 1..4: note = epitope) [compound 1626]
Rank of partial sequence as epitope binding to IgE antibody [3]: Key

1884 (TVRTLQRT; REGION 1..8: note = epitope) [compound 1884]
epitope sequence binding to IgE antibody, rank (Key/Preferably/More preferably) (serum of patient P35 (WDEIA)): Preferably

2424 (AWSGK; REGION 1..5: note = epitope) [compound 2424]
Epitope sequence binding to IgE antibody, rank of the sequence (Key/Preferably/More preferably) (serum of patient P12 (WDEIA), sequence without X): Preferably

2503 (SSQVSF; REGION 1..6: note = epitope) [compound 2503]
Epitope sequence binding to IgE antibody, rank of the sequence (serum of patient P15 (WDEIA), partial sequence): Key

1664 (YNPDKVPF; REGION 1..8: note = epitope) [compound 1664]
Rank of partial sequence as epitope binding to IgE antibody [4]: Key

1393 (QPLPPQQQ; REGION 1..8: note = epitope) [compound 1393]
Epitope sequence binding to IgE antibody, rank of the sequence [5]: Preferably

1630 (PDKVPFVPIS; REGION 1..10: note = epitope) [compound 1630]
Rank of partial sequence as epitope binding to IgE antibody (serum of patient P27 (WDEIA), sequence without X): Key

2633 (KEAAEM; REGION 1..6: note = epitope) [compound 2633]
Epitope sequence binding to IgE antibody, rank of the sequence (serum of patient P7 (WDEIA), partial sequence): Preferably

2371 (HDIDRCAY; REGION 1..8: note = epitope) [compound 2371]
Epitope sequence binding to IgE antibody, rank of the sequence (Key/Preferably/More preferably) [3]: Key

1751 (SQVIIM; REGION 1..6: note = epitope) [compound 1751]
epitope sequence binding to IgE antibody, rank (Key/Preferably/More preferably) (serum of patient G7 (adult, general immediate type allergy to wheat)): Key

2277 (DKRVIERFEK; REGION 1..10: note = epitope) [compound 2277]
Epitope sequence binding to IgE antibody, rank of the sequence (Key/Preferably/More preferably) (serum of patient P10 (WDEIA), sequence without X): Key

1234 (PQQPP; REGION 1..5: note = epitope) [compound 1234]
Epitope sequence binding to IgE antibody, rank of the sequence [6]: Key

1852 (YTVRTLQRT; REGION 1..9: note = epitope) [compound 1852]
epitope sequence binding to IgE antibody, rank (Key/Preferably/More preferably) (serum of patient P17 (WDEIA)): More preferably

1401 (KPWQQQ; REGION 1..6: note = epitope) [compound 1401]
Epitope sequence binding to IgE antibody, rank of the sequence [7]: Preferably

1616 (FVPISG; REGION 1..6: note = epitope) [compound 1616]
Rank of partial sequence as epitope binding to IgE antibody [8]: Key

1365 (SINVEN; REGION 1..6: note = epitope) [compound 1365]
Epitope sequence binding to IgE antibody, rank of the sequence [9]: Preferably

1595 (QPQQPF; REGION 1..6: note = epitope) [compound 1595]
Rank of partial sequence as epitope binding to IgE antibody [1]: More preferably

2268 (ERFEK; REGION 1..5: note = epitope) [compound 2268]
Epitope sequence binding to IgE antibody, rank of the sequence (Key/Preferably/More preferably) [2]: Key

1900 (QVPLVQQ; REGION 1..7: note = epitope) [compound 1900]
epitope sequence binding to IgE antibody, rank (Key/Preferably/More preferably) (serum of patient P3 (WDEIA)): Preferably

1801 (LEALPKFLKN; REGION 1..10: note = epitope) [compound 1801]
epitope sequence binding to IgE antibody, rank (Key/Preferably/More preferably) (serum of patient P17 (WDEIA)): Key

1742 (KEAAN; REGION 1..5: note = epitope) [compound 1742]
epitope sequence binding to IgE antibody, rank (Key/Preferably/More preferably) (serum of patient G4 (adult, general immediate type allergy to wheat)): Preferably

1489 (QQPISQQQAQ; REGION 1..10: note = epitope) [compound 1489]
Rank of partial sequence as epitope binding to IgE antibody [7]: Preferably

1862 (VRTLQ; REGION 1..5: note = epitope) [compound 1862]
epitope sequence binding to IgE antibody, rank (Key/Preferably/More preferably) (serum of patient P24 (WDEIA)): Key

1538 (LVQQQQFLGQ; REGION 1..10: note = epitope) [compound 1538]
Rank of partial sequence as epitope binding to IgE antibody [8]: Further preferably

1586 (QQPFPQTQQP; REGION 1..10: note = epitope) [compound 1586]
Rank of partial sequence as epitope binding to IgE antibody [5]: More preferably

1563 (QVPLVQQQQ; REGION 1..9: note = epitope) [compound 1563]
Rank of partial sequence as epitope binding to IgE antibody [9]: Preferably

1910 (QFPGQQQ; REGION 1..7: note = epitope) [compound 1910]
epitope sequence binding to IgE antibody, rank (Key/Preferably/More preferably) (serum of patient P7 (WDEIA)): Key

1467 (YLQPQQPIS; REGION 1..9: note = epitope) [compound 1467]
Rank of partial sequence as epitope binding to IgE antibody [3]: Preferably

1915 (QVPLVQQQQ; REGION 1..9: note = epitope) [compound 1915]
epitope sequence binding to IgE antibody, rank (Key/Preferably/More preferably) (serum of patient P9 (WDEIA)): Key

1761 (YLKKVGYN; REGION 1..8: note = epitope) [compound 1761]
epitope sequence binding to IgE antibody, rank (Key/Preferably/More preferably) (serum of patient P18 (WDEIA)): Key

2494 (QVSF; REGION 1..4: note = epitope) [compound 2494]
Epitope sequence binding to IgE antibody, rank of the sequence (serum of patient P2 (WDEIA), partial sequence): Key

1665 (VPFVPISG; REGION 1..8: note = epitope) [compound 1665]
Rank of partial sequence as epitope binding to IgE antibody [4]: Key

2286 (DKRVIERFEK; REGION 1..10: note = epitope) [compound 2286]
Epitope sequence binding to IgE antibody, rank of the sequence (Key/Preferably/More preferably) [3]: Preferably

1819 (SGKELEALPK; REGION 1..10: note = epitope) [compound 1819]
epitope sequence binding to IgE antibody, rank (Key/Preferably/More preferably) (serum of patient P33 (WDEIA)): Key

1503 (QPISQQQA; REGION 1..8: note = epitope) [compound 1503]
Rank of partial sequence as epitope binding to IgE antibody [9]: Preferably

1668 (FVPISG; REGION 1..6: note = epitope) [compound 1668]
Rank of partial sequence as epitope binding to IgE antibody (serum of patient G3 (adult, general immediate type allergy to wheat), sequence without X): Key

1231 (PQQPP; REGION 1..5: note = epitope) [compound 1231]
Epitope sequence binding to IgE antibody, rank of the sequence (serum of patient P13 (WDEIA), sequence without X): Key

1428 (YLQPQQPIS; REGION 1..9: note = epitope) [compound 1428]
Rank of partial sequence as epitope binding to IgE antibody [6]: Preferably

2394 (HDIDRCAYV; REGION 1..9: note = epitope) [compound 2394]
Epitope sequence binding to IgE antibody, rank of the sequence (Key/Preferably/More preferably) (serum of patient P34 (WDEIA), sequence without X): Key

1236 (PQQPP; REGION 1..5: note = epitope) [compound 1236]
Epitope sequence binding to IgE antibody, rank of the sequence [5]: Key

1885 (RTLQ; REGION 1..4: note = epitope) [compound 1885]
epitope sequence binding to IgE antibody, rank (Key/Preferably/More preferably) (serum of patient P35 (WDEIA)): Key

1937 (QQFPGQQQ; REGION 1..8: note = epitope) [compound 1937]
epitope sequence binding to IgE antibody, rank (Key/Preferably/More preferably) (serum of patient P19 (WDEIA)): Preferably

1295 (VSMILPRSD; REGION 1..9: note = epitope) [compound 1295]
Epitope sequence binding to IgE antibody, rank of the sequence [9]: Key

2259 (RNYRV; REGION 1..5: note = epitope) [compound 2259]
Epitope sequence binding to IgE antibody, rank of the sequence (Key/Preferably/More preferably) (serum of patient P55 (child, general immediate type allergy to wheat), sequence without X): Key

1414 (YLQPQQPISQ; REGION 1..10: note = epitope) [compound 1414]
Epitope sequence binding to IgE antibody, rank of the sequence (serum of patient P4 (WDEIA), sequence without X): Preferably

1354 (VEDNRRALR; REGION 1..9: note = epitope) [compound 1354]
Epitope sequence binding to IgE antibody, rank of the sequence [7]: Key

2730 (YKIGGIGTV; REGION 1..9: note = epitope) [compound 2730]
Epitope sequence binding to IgE antibody, rank of the sequence (serum of patient P28 (WDEIA), partial sequence): Preferably

1534 (QQQQFLG; REGION 1..7: note = epitope) [compound 1534]
Rank of partial sequence as epitope binding to IgE antibody [6]: Preferably

2460 (LKAWSGK; REGION 1..7: note = epitope) [compound 2460]
Epitope sequence binding to IgE antibody, rank of the sequence (Key/Preferably/More preferably/Further preferably) (sequence without X): Further preferably
